Measurements reported in patent US8637484B2, “Modulation of growth hormone receptor expression and insulin-like growth factor expression” (Antisense Therapeutic Limited, priority 2003, dated 2014).
In the oligonucleotide strings, read from the 5' end, every base follows the letter of its sugar. An asterisk marks phosphorothioate; unmarked linkages are phosphodiester. Other units and linkages are bracketed, terminal groups are in braces. A string of capitals states the bases alone. e = 2'-O-(2-methoxyethyl) (MOE); [5mC] = 5-methylcytosine; d = 2'-deoxy (DNA)

system: mouse growth hormone receptor mRNA; assay: Inhibition of mouse growth hormone receptor mRNA levels in b.END cells, quantitative real-time PCR; assay type: cell-based; design: % INHIB: concentration or dose not given beside the values; conditions: mouse growth hormone receptor mRNA, b.END cells, averages from three experiments
Experimental: The mouse brain endothelial cell line b.END was obtained from Dr. Werner Risau at the Max Plank Instititute (Bad Nauheim, Germany). b.END cells were routinely cultured in DMEM, high glucose (Gibco/Life Technologies, Gaithersburg, Md.) supplemented with 10% fetal calf serum (Gibco/Life Technologies, Gaithersburg, Md.). Cells were routinely passaged by trypsinization and dilution when they reached 90% confluence. Cells were seeded into 96-well plates (Falcon-Primaria #3872) at a density of 3000 cells/well for use in RT-PCR analysis.
When cells reached 65-75% confluency, they were treated with oligonucleotide. For cells grown in 96-well plates, wells were washed once with 100 μL OPTI-MEM™-1 reduced-serum medium (Invitrogen Corporation, Carlsbad, Calif.) and then treated with 130 μL of OPTI-MEM™-1 containing 3.75 μg/mL LIPOFECTIN™ (Invitrogen Corporation, Carlsbad, Calif.) and the desired concentration of oligonucleotide. Cells are treated and data are obtained in triplicate. After 4-7 hours of treatment at 37° C., the medium was replaced with fresh medium. Cells were harvested 16-24 hours after oligonucleotide treatment.
Total RNA was isolated using an RNEASY 96™ kit and buffers purchased from Qiagen Inc. (Valencia, Calif.) following the manufacturer's recommended procedures. Briefly, for cells grown on 96-well plates, growth medium was removed from the cells and each well was washed with 200 μL cold PBS. 150 μL Buffer RLT was added to each well and the plate vigorously agitated for 20 seconds. 150 μL of 70% ethanol was then added to each well and the contents mixed by pipetting three times up and down. The samples were then transferred to the RNEASY 96™ well plate attached to a QIAVAC™ manifold fitted with a waste collection tray and attached to a vacuum source. Vacuum was applied for 1 minute. 500 μL of Buffer RW1 was added to each well of the RNEASY 96™ plate and incubated for 15 minutes and the vacuum was again applied for 1 minute. An additional 500 μL of Buffer RW1 was added to each well of the RNEASY 96™ plate and the vacuum was applied for 2 minutes. 1 mL of Buffer RPE was then added to each well of the RNEASY 96™ plate and the vacuum applied for a period of 90 seconds. The Buffer RPE wash was then repeated and the vacuum was applied for an additional 3 minutes. The plate was then removed from the QIAVAC™ manifold and blotted dry on paper towels. The plate was then re-attached to the QIAVAC™ manifold fitted with a collection tube rack containing 1.2 mL collection tubes. RNA was then eluted by pipetting 140 μL of RNAse free water into each well, incubating 1 minute, and then applying the vacuum for 3 minutes.
Quantitation of growth hormone receptor mRNA levels was accomplished by real-time quantitative PCR using the ABI PRISM™ 7600, 7700, or 7900 Sequence Detection System (PE-Applied Biosystems, Foster City, Calif.) according to manufacturer's instructions. This is a closed-tube, non-gel-based, fluorescence detection system which allows high-throughput quantitation of polymerase chain reaction (PCR) products in real-time. As opposed to standard PCR in which amplification products are quantitated after the PCR is completed, products in real-time quantitative PCR are quantitated as they accumulate. This is accomplished by including in the PCR reaction an oligonucleotide probe that anneals specifically between the forward and reverse PCR primers, and contains two fluorescent dyes. A reporter dye (e.g., FAM or JOE, obtained from either PE-Applied Biosystems, Foster City, Calif., Operon Technologies Inc., Alameda, Calif. or Integrated DNA Technologies Inc., Coralville, Iowa) is attached to the 5′ end of the probe and a quencher dye (e.g., TAMRA, obtained from either PE-Applied Biosystems, Foster City, Calif., Operon Technologies Inc., Alameda, Calif. or Integrated DNA Technologies Inc., Coralville, Iowa) is attached to the 3′ end of the probe. […]

| Substance | % INHIB [%] |
| --- | --- |
| 227443 (antisense eT*eG*e[5mC]*eT*eT*dG*dG*d[5mC]*dA*dG*d[5mC]*dT*d[5mC]*dG*dT*eG*eG*eG*eT*eT) [compound 227443] | 0 |
| 227444 (antisense eA*eT*eG*eG*e[5mC]*dT*dG*d[5mC]*dG*d[5mC]*d[5mC]*dT*dG*d[5mC]*dT*eT*eG*eG*e[5mC]*eA) [compound 227444] | 53 |
| 227445 (antisense eT*eA*e[5mC]*e[5mC]*eT*dG*dA*dG*dA*d[5mC]*d[5mC]*dT*d[5mC]*dG*dG*eA*eG*eT*eT*eT) [compound 227445] | 69 |
| 227446 (antisense eA*e[5mC]*eA*eA*eA*dG*dA*dT*d[5mC]*d[5mC]*dA*dT*dA*d[5mC]*d[5mC]*eT*eG*eA*eG*eA) [compound 227446] | 87 |
| 227447 (antisense eG*e[5mC]*eT*eG*eG*dT*dG*dT*dA*dG*d[5mC]*d[5mC]*dT*d[5mC]*dA*e[5mC]*eT*eT*e[5mC]*e[5mC]) [compound 227447] | 77 |
| 227448 (antisense eT*eT*eT*eG*e[5mC]*d[5mC]*dA*dA*dG*dA*dG*dT*dA*dG*d[5mC]*eT*eG*eG*eT*eG) [compound 227448] | 60 |
| 227449 (antisense eA*e[5mC]*eG*eA*e[5mC]*dA*d[5mC]*dT*dT*dG*dG*dT*dG*dA*dA*eT*e[5mC]*eG*eA*eG) [compound 227449] | 69 |
| 227450 (antisense eT*eG*eG*e[5mC]*eT*dT*dT*d[5mC]*d[5mC]*d[5mC]*dT*dT*dT*dT*dA*eG*e[5mC]*eA*eT*eA) [compound 227450] | 71 |
| 227451 (antisense eA*eT*eG*eA*eG*d[5mC]*dA*dA*dT*dT*d[5mC]*dT*dT*dG*d[5mC]*eA*eG*e[5mC]*eT*eT) [compound 227451] | 49 |
| 227454 (antisense eA*eG*eT*eT*eG*dA*dA*dG*dT*dA*dA*d[5mC]*dA*dG*d[5mC]*eT*eG*eT*eT*eT) [compound 227454] | 69 |
| 227455 (antisense eA*eG*eT*eA*eG*dG*dG*dT*dA*dT*d[5mC]*d[5mC]*dA*dA*dA*eT*eG*eG*eA*eG) [compound 227455] | 43 |
| 227456 (antisense eG*eT*e[5mC]*e[5mC]*eA*dG*dT*dT*dG*dA*dG*dG*d[5mC]*d[5mC]*dA*eA*eT*eG*eG*eG) [compound 227456] | 97 |
| 227457 (antisense eG*eA*eA*eT*eT*dA*dT*d[5mC]*d[5mC]*dA*dT*d[5mC]*d[5mC]*d[5mC]*dT*eT*e[5mC]*eA*eG*eA) [compound 227457] | 67 |
| 227458 (antisense eG*eT*eA*e[5mC]*eT*dG*dA*dA*dT*dT*dT*d[5mC]*dA*dT*dA*e[5mC]*eT*e[5mC]*e[5mC]*eA) [compound 227458] | 75 |
| 227459 (antisense e[5mC]*eT*eG*eA*eA*d[5mC]*dT*d[5mC]*dG*d[5mC]*dT*dG*dT*dA*d[5mC]*eT*eT*eT*eT*e[5mC]) [compound 227459] | 60 |
| 227460 (antisense eA*eA*e[5mC]*eT*eG*dG*dA*dT*dA*dT*d[5mC]*dT*dT*d[5mC]*dT*eT*e[5mC]*eA*e[5mC]*eA) [compound 227460] | 43 |
| 227461 (antisense eT*eG*e[5mC]*eT*eA*d[5mC]*dT*d[5mC]*d[5mC]*dA*dA*dA*dT*dA*dT*eT*e[5mC]*e[5mC]*eA*eA) [compound 227461] | 75 |
| 227462 (antisense eG*e[5mC]*eT*eT*eT*dG*dA*dA*dA*dA*dT*dA*dT*dA*dA*e[5mC]*eT*eA*e[5mC]*eA) [compound 227462] | 31 |
| 227463 (antisense eA*eT*e[5mC]*eA*eG*d[5mC]*dA*dT*d[5mC]*dT*dT*dA*dA*dT*d[5mC]*e[5mC]*eT*eT*eT*eG) [compound 227463] | 39 |
| 227465 (antisense eT*eG*eA*eG*eA*dA*dG*dA*dT*d[5mC]*dT*dG*dG*dA*dT*e[5mC]*eA*eA*eT*e[5mC]) [compound 227465] | 51 |
